# Laboratory results from patent US11780845B2 (Relay Therapeutics, Inc., priority 2019, dated 2023).
# Biological target: FGFR2 (Homo sapiens (Human), UniProt P21802)
# Test: FGFR2 Biochemical Caliper Assay
# Procedure: Compounds of the present invention were also tested in a FGFR2 Biochemical Caliper Assay. Compounds were prepared in 10 mM DMSO solution and serially diluted into 11 concentrations by 3-fold dilution. […] 5 uL of ATP solution (100 uM) was added to start the reaction and the plate was incubated for 90 minutes, then 70 uL of stopping buffer (0.5M EDTA) was added to terminate the reaction. Each well was analyzed using EZ reader.
# FGFR2, sequence (P21802 22-821): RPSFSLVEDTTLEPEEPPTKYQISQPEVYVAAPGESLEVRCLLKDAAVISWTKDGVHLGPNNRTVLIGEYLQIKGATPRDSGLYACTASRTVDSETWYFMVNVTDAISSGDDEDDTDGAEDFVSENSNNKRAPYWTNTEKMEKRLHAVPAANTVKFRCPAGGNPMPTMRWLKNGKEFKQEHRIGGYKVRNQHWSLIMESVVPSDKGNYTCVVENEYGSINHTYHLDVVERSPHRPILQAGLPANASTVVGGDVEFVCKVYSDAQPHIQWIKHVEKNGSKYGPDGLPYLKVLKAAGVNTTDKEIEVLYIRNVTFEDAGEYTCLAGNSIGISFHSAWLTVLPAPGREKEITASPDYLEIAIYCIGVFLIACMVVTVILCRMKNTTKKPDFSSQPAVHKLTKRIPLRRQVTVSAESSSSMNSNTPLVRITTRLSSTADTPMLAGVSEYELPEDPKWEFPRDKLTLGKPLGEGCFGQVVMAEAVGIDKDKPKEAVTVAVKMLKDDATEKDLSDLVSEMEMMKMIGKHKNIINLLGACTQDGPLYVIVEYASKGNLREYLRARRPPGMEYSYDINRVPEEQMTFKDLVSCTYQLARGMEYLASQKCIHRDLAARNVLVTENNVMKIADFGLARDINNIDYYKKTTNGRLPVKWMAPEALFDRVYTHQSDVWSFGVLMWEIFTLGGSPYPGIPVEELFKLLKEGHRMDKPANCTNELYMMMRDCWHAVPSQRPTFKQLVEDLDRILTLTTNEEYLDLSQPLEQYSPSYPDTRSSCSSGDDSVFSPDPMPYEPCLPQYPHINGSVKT
row,Structure (SMILES),IC50 [nM]
1,C=C(C)C(=O)Nc1ccc(-c2c(-c3ccc4c(c3)CC(NC(C)=O)C4)c3c(N)ncnc3n2C)cc1 (centres unmarked) [Example 204],1000 to 100000
2,C=C(C)C(=O)Nc1ccc(-c2c(-c3ccc4[nH]c(C(=O)N(C)C)cc4c3)c3c(N)ncnc3n2C)cc1 [Example 205],1000 to 100000
3,C=C(C)C(=O)Nc1ccc(-c2c(-c3ccc(N4CCCC4=O)nc3)c3c(N)ncnc3n2C)cc1 [Example 208],1000 to 100000
4,C=C(C)C(=O)Nc1ccc(-c2c(-c3ccc4c(c3)CN(C)C4=O)c3c(N)ncnc3n2C)cc1 [Example 209],1000 to 100000
5,C=C(C)C(=O)Nc1ccc(-c2c(-c3cnc4c(c3)OCCN4C)c3c(N)ncnc3n2C)cc1 [Example 214],100 to 250
6,C=C(C)C(=O)Nc1ccc(-c2c(-c3ccc(Cc4nn[nH]n4)cc3)c3c(N)ncnc3n2C)cc1 [Example 218],1000 to 100000
7,C=C(C)C(=O)Nc1ccc(-c2c(-c3cnn(CC4CCNCC4)c3)c3c(N)ncnc3n2C)cc1 [Example 221],1000 to 100000
8,C=C(C)C(=O)Nc1ccc(-c2c(-c3ccc(N(C)C(=O)C4CCCC4)cc3)c3c(N)ncnc3n2C)cc1 [Example 222],1000 to 100000
9,C=C(C)C(=O)Nc1ccc(-c2c(-c3ccc(Sc4ccccc4)nc3)c3c(N)ncnc3n2C)cc1 [Example 225],250 to 1000
10,C=C(C)C(=O)Nc1ccc(-c2c(-c3ccc(NC(=O)C4CCC4)cc3)c3c(N)ncnc3n2C)cc1 [Example 226],< 100
11,C=C(C)C(=O)Nc1ccc(-c2c(-c3ccc(C(=O)N4CC5(CCC5)C4)cc3)c3c(N)ncnc3n2C)cc1 [Example 231],1000 to 100000
12,C=C(C)C(=O)Nc1ccc(-c2c(-c3ccc4c(c3)CCN4C(=O)NC)c3c(N)ncnc3n2C)cc1 [Example 232],250 to 1000
13,C=C(C)C(=O)Nc1ccc(-c2c(-c3ccc(C(=O)N4CC[C@H](OC)C4)cc3)c3c(N)ncnc3n2C)cc1 [Example 240],1000 to 100000
14,C=C(C)C(=O)Nc1ccc(-c2c(-c3ccc(C(=O)N4CCC(OC)CC4)cc3)c3c(N)ncnc3n2C)cc1 [Example 242],1000 to 100000
15,C=C(C)C(=O)Nc1ccc(-c2c(-c3ccc(C(=O)N4CC5(CCO5)C4)cc3)c3c(N)ncnc3n2C)cc1 [Example 243],1000 to 100000
16,C=C(C)C(=O)Nc1ccc(-c2c(-c3ccc(C(=O)N(C)C4CCOC4)cc3)c3c(N)ncnc3n2C)cc1 (centres unmarked) [Example 247],1000 to 100000
17,C=C(C)C(=O)Nc1ccc(-c2c(-c3ccc4c(c3)CNC4=O)c3c(N)ncnc3n2C)cc1 [Example 250],1000 to 100000
18,C=C(C)C(=O)Nc1ccc(-c2c(-c3ccc(C(=O)N4CCC(F)CC4)cc3)c3c(N)ncnc3n2C)cc1 [Example 251],250 to 1000
19,C=C(C)C(=O)Nc1ccc(-c2c(-c3ccc(C(=O)N4CC[C@@H](OC)C4)cc3)c3c(N)ncnc3n2C)cc1 [Example 252],250 to 1000
20,C=C(C)C(=O)Nc1ccc(-c2c(-c3ccc(OCC4CCCC4)cc3)c3c(N)ncnc3n2C)cc1 [Example 253],250 to 1000
21,C=C(C)C(=O)Nc1ccc(-c2c(-c3ccc(C(=O)N(C)CCO)cc3)c3c(N)ncnc3n2C)cc1 [Example 254],250 to 1000
22,C=C(C)C(=O)Nc1ccc(-c2c(-c3ccc(C(=O)N(C)c4ncccn4)cc3)c3c(N)ncnc3n2C)cc1 [Example 256],1000 to 100000
23,C=C(C)C(=O)Nc1ccc(-c2c(-c3ccc(C(=O)N4CC(F)(F)C4)cc3)c3c(N)ncnc3n2C)cc1 [Example 259],1000 to 100000

row,Structure (SMILES),IC50 [nM]
1,C=C(C)C(=O)Nc1ccc(-c2c(-c3ccc(C(=O)N4CC(C5CCOC5)C4)cc3)c3c(N)ncnc3n2C)cc1 (centres unmarked) [Example 261],1000 to 100000
2,C=C(C)C(=O)Nc1ccc(-c2c(C3=CCN(C(=O)NC)CC3)c3c(N)ncnc3n2C)cc1 [Example 268],1000 to 100000
3,C=C(C)C(=O)Nc1ccc(-c2c(-c3ccc(C(=O)N(C)CC4CCCO4)cc3)c3c(N)ncnc3n2C)cc1 (centres unmarked) [Example 269],1000 to 100000
4,C=C(C)C(=O)Nc1ccc(-c2c(-c3ccc(C(=O)N4CCC5(COC5)C4)cc3)c3c(N)ncnc3n2C)cc1 [Example 271],1000 to 100000
5,C=C(C)C(=O)Nc1ccc(-c2c(-c3ccc(C(=O)N(C)C4CC(F)(F)C4)cc3)c3c(N)ncnc3n2C)cc1 [Example 273],250 to 1000
6,C=C(C)C(=O)Nc1ccc(-c2c(-c3ccc(=O)n(C4CC4)c3)c3c(N)ncnc3n2C)cc1 [Example 275],1000 to 100000
7,C=C(C)C(=O)Nc1ccc(-c2c(-c3ccc(-c4cc(C)no4)cc3)c3c(N)ncnc3n2C)cc1 [Example 277],250 to 1000
8,C=C(C)C(=O)Nc1ccc(-c2c(-c3ccc(-c4cocn4)cc3)c3c(N)ncnc3n2C)cc1 [Example 278],250 to 1000
9,C=C(C)C(=O)Nc1ccc(-c2c(-c3ccc(-c4nc(C)c(C)o4)cc3)c3c(N)ncnc3n2C)cc1 [Example 279],100 to 250
10,C=C(C)C(=O)Nc1ccc(-c2c(-c3ccc(-c4nnc(NC)s4)cc3)c3c(N)ncnc3n2C)cc1 [Example 280],100 to 250
11,C=C(C)C(=O)Nc1ccc(-c2c(-c3ccc4c(ccn4S(C)(=O)=O)c3)c3c(N)ncnc3n2C)cc1 [Example 281],1000 to 100000
12,C=C(C)C(=O)Nc1ccc(-c2c(-c3ccc(C(=O)N(C)CCOC)cc3)c3c(N)ncnc3n2C)cc1 [Example 284],1000 to 100000
13,C=C(C)C(=O)Nc1ccc(-c2c(-c3ccc(C4=NNC(C)O4)nc3)c3c(N)ncnc3n2C)cc1 (centres unmarked) [Example 285],1000 to 100000
14,C=C(C)C(=O)Nc1ccc(-c2c(-c3ccc(-c4nnc(C(F)(F)F)o4)cc3)c3c(N)ncnc3n2C)cc1 [Example 286],1000 to 100000
15,C=C(C)C(=O)Nc1ccc(-c2c(-c3ccc4c(c3)C(C)N(C)C4=O)c3c(N)ncnc3n2C)cc1 (centres unmarked) [Example 287],1000 to 100000
16,C=C(C)C(=O)Nc1ccc(-c2c(-c3ccc(S(=N)(=O)N4CCCC4)cc3)c3c(N)ncnc3n2C)cc1 (centres unmarked) [Example 317],250 to 1000
17,C=C(C)C(=O)Nc1ccc(-c2c(-c3ccc(C(=O)NC(C)CO)cc3)c3c(N)ncnc3n2C)cc1 (centres unmarked) [Example 319],< 100
18,C=C(C)C(=O)Nc1ccc(-c2c(-c3ccc(C(=O)NCCO)cc3)c3c(N)ncnc3n2C)cc1 [Example 322],250 to 1000
19,C=C(C)C(=O)Nc1ccc(-c2c(-c3ccc(C(=O)NCC4CC(O)C4)cc3)c3c(N)ncnc3n2C)cc1 (centres unmarked) [Example 323],100 to 250
20,C=C(C)C(=O)Nc1ccc(-c2c(-c3ccc(S(=O)(=O)NC4CCCC4)cc3)c3c(N)ncnc3n2C)cc1 [Example 325],1000 to 100000
21,C=C(C)C(=O)Nc1ccc(-c2c(-c3ccc(S(=O)(=O)NCC(F)(F)F)cc3)c3c(N)ncnc3n2C)cc1 [Example 326],1000 to 100000
22,C=C(C)C(=O)Nc1ccc(-c2c(-c3ccc(C(=O)NC4CC(O)C4)cc3)c3c(N)ncnc3n2C)cc1 (centres unmarked) [Example 328],250 to 1000
23,C=C(C)C(=O)Nc1ccc(-c2c(-c3ccc(C(=O)NC4CC(CO)C4)cc3)c3c(N)ncnc3n2C)cc1 (centres unmarked) [Example 330],100 to 250

row,Structure (SMILES),IC50 [nM]
1,C=C(C)C(=O)Nc1ccc(-c2c(-c3ccc(C(=O)NCCCOC)cc3)c3c(N)ncnc3n2C)cc1 [Example 333],100 to 250
2,C=C(C)C(=O)Nc1ccc(-c2c(-c3ccc(C(=O)NCC4CNC4)cc3)c3c(N)ncnc3n2C)cc1 [Example 334],250 to 1000
3,C=C(C)C(=O)Nc1ccc(-c2c(-c3ccc(C(=O)NCCCO)cc3)c3c(N)ncnc3n2C)cc1 [Example 336],100 to 250
4,C=C(C)C(=O)Nc1ccc(-c2c(-c3ccc(Oc4cccc(C#N)n4)cc3)c3c(N)ncnc3n2C)cc1 [Example 345],< 100
5,C=C(C)C(=O)Nc1ccc(-c2c(-c3ccc(C(=O)NCC4(O)CCC4)cc3)c3c(N)ncnc3n2C)cc1 [Example 347],< 100
6,C=C(C)C(=O)Nc1ccc(-c2c(-c3ccc(C(=O)NCC4(C)CC4)cc3)c3c(N)ncnc3n2C)cc1 [Example 349],< 100
7,C=C(C)C(=O)Nc1ccc(-c2c(-c3ccc(S(=N)(=O)NC4CCCC4)cc3)c3c(N)ncnc3n2C)cc1 (centres unmarked) [Example 350],1000 to 100000
8,C=C(C)C(=O)Nc1ccc(-c2c(-c3ccc(C(=O)N4CCC[C@@H]4C#N)cc3)c3c(N)ncnc3n2C)cc1 [Example 356],100 to 250
9,C=C(C)C(=O)Nc1ccc(-c2c(-c3ccc(C(=O)NC4CCNC4)cc3)c3c(N)ncnc3n2C)cc1 (centres unmarked) [Example 358],< 100
10,C=C(C)C(=O)Nc1ccc(-c2c(-c3ccc(C(=O)N4CCC[C@H]4C#N)cc3)c3c(N)ncnc3n2C)cc1 [Example 359],< 100
11,C=C(C)C(=O)Nc1ccc(-c2c(-c3ccc(C(=O)NCC4(C#N)CC4)cc3)c3c(N)ncnc3n2C)cc1 [Example 360],< 100
12,C=C(C)C(=O)Nc1ccc(-c2c(-c3ccc(C(=O)NCCF)cc3)c3c(N)ncnc3n2C)cc1 [Example 363],< 100
13,C=C(C)C(=O)Nc1ccc(-c2c(-c3ccc(C(=O)NC4CC(F)C4)cc3)c3c(N)ncnc3n2C)cc1 (centres unmarked) [Example 364],< 100
14,C=C(C)C(=O)Nc1ccc(-c2c(-c3ccc(C(=O)NCC4COC4)cc3)c3c(N)ncnc3n2C)cc1 [Example 366],100 to 250
15,C=C(C)C(=O)Nc1ccc(-c2c(-c3ccc(C(=O)NCCC4COC4)cc3)c3c(N)ncnc3n2C)cc1 [Example 367],250 to 1000
16,C=C(C)C(=O)Nc1ccc(-c2c(-c3ccc(C(=O)NC4CCN(C)C4=O)cc3)c3c(N)ncnc3n2C)cc1 (centres unmarked) [Example 389],100 to 250
17,C=C(C)C(=O)Nc1ccc(-c2c(-c3ccc(C(=O)N(C)C4CCN(C)C4=O)cc3)c3c(N)ncnc3n2C)cc1 (centres unmarked) [Example 390],1000 to 100000
18,C=C(C)C(=O)Nc1ccc(-c2c(-c3ccc(C(=O)NCC4COCCN4C)cc3)c3c(N)ncnc3n2C)cc1 (centres unmarked) [Example 392],1000 to 100000
19,C=C(C)C(=O)Nc1ccc(-c2c(C3=CCC(C(=O)NCC(C)(C)OC)CC3)c3c(N)ncnc3n2C)cc1 (centres unmarked) [Example 394],250 to 1000
20,C=C(C)C(=O)Nc1ccc(-c2c(-c3ccc(C(=O)NC4CCOC4)c(F)c3)c3c(N)ncnc3n2C)cc1 (centres unmarked) [Example 396],100 to 250
21,C=C(C)C(=O)Nc1ccc(-c2c(-c3ccc(C(=O)NC4CCOC4)c(OC)c3)c3c(N)ncnc3n2C2COC2)cc1 (centres unmarked) [Example 400],100 to 250
22,C=C(C)C(=O)Nc1ccc(-c2c(C3=CCC(C(=O)NCC4CCC4)CC3)c3c(N)ncnc3n2C)cc1 (centres unmarked) [Example 402],100 to 250
